Measured values as given in patent US20240139211A1, “METHODS AND COMPOSITIONS FOR TREATING AMYOTROPHIC LATERAL SCLEROSIS” (Amylyx Pharmaceuticals, Inc., priority 2022, published 2024).
Read-outs that look alike come from different tables or passages of the source.

Legend:
[1] = biological target: T1, MATE1 (Homo sapiens, UniProt Q96FL8); test: Inhibitor of MATE1, probe substrate uptake; details: for potency estimated from few doses: read-out: Estimated IC50, MATE1
T1 sequence (Q96FL8 1-570): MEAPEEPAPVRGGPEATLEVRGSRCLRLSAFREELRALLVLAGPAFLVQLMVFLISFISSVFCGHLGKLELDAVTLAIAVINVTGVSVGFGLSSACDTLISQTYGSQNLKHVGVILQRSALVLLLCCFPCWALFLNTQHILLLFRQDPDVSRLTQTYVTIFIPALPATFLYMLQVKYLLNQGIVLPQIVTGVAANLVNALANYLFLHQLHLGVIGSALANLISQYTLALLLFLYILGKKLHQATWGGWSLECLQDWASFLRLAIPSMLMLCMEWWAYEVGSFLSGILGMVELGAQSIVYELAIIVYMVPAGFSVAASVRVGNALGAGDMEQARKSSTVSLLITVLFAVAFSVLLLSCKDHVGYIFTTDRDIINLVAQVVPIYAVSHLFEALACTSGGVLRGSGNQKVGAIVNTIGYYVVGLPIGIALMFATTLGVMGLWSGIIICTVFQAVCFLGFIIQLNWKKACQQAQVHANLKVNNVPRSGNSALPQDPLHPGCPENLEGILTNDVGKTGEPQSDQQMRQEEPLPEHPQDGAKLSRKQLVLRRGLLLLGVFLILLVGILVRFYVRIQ

[2] = tested on: Caco-2 cells
[3] = biological target: OATP1B1 (Homo sapiens, UniProt Q9Y6L6); test: Inhibitor of OATP1B1, probe substrate uptake; details: for potency estimated from few doses: read-out: Estimated IC50, OATP1B1
[4] = biological target: T2, BCRP (Homo sapiens, UniProt Q9UNQ0); test: Inhibitor of BCRP, 3H-estrone-3-sulfate efflux in Caco-2 cells
T2 sequence (Q9UNQ0 1-655): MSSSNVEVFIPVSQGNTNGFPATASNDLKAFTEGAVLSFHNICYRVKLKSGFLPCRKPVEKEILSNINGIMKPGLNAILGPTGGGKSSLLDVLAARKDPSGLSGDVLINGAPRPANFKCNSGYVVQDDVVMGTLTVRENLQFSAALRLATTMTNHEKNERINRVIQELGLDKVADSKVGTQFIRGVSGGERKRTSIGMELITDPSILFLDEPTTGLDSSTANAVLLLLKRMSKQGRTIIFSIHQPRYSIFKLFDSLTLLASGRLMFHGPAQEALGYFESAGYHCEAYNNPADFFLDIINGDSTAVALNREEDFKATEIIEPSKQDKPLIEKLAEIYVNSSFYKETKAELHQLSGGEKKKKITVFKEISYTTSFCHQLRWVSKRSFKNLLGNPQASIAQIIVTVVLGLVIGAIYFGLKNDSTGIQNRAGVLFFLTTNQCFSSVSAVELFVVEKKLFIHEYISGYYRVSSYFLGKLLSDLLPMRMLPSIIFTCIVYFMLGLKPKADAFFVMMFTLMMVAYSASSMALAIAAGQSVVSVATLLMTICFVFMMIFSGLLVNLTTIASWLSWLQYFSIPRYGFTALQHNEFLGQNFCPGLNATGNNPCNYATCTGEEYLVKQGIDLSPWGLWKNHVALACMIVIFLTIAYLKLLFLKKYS

[5] = tested on: human hepatocytes; test: Stability of test articles in hepatocyte cultures; details: two concentrations
[6] = biological target: T3, OATP1B3 (Homo sapiens, UniProt Q9NPD5); test: Inhibitor of OATP1B3, probe substrate uptake; details: for potency estimated from few doses: read-out: Estimated IC50, OATP1B3
[7] = biological target: T4, OAT3 (Homo sapiens, UniProt Q8TCC7); test: Substrate of OAT3, uptake in HEK293 cells
T4 sequence (Q8TCC7 1-542): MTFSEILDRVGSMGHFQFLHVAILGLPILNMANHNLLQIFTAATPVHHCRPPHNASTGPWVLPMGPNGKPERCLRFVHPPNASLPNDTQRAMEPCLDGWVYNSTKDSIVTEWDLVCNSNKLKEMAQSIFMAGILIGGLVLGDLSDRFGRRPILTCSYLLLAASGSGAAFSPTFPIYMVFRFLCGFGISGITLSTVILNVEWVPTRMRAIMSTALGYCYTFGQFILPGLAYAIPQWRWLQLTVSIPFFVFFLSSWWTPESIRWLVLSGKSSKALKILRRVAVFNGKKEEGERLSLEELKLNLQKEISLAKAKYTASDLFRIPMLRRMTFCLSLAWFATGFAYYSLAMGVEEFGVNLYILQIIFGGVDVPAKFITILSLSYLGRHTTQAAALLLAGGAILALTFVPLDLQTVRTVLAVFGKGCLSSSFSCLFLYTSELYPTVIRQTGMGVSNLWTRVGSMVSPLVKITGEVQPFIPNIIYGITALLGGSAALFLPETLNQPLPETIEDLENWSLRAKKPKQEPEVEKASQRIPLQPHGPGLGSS
Text: (§1) Vector-transfected HEK cells were used as a control.

[8] = biological target: T3, OATP1B3; test: Substrate of OATP1B3, uptake in HEK293 cells
Text: as §1

[9] = biological target: P-gp (Homo sapiens, UniProt P08183); test: Inhibitor of P-gp, 3H-digoxin efflux in Caco-2 cells; details: for potency estimated from few doses: read-out: Estimated IC50, P-gp
[10] = biological target: MATE2K (Homo sapiens, UniProt Q86VL8); test: Substrate of MATE2-K, uptake in HEK293 cells
Text: as §1

[11] = biological target: BSEP (Homo sapiens, UniProt O95342); test: Substrate of BSEP; details: test article 1 and 10 μM
[12] = biological target: T2, BCRP; test: Substrate of BCRP (Caco-2 cells, selective inhibitor)
[13] = estimated from two concentrations
[14] = two concentrations per test article
[15] = Caco-2, two concentrations per test article
[16] = two concentrations per test article, Caco-2 cells

Sequence of OATP1B1 (Q9Y6L6 whole entry): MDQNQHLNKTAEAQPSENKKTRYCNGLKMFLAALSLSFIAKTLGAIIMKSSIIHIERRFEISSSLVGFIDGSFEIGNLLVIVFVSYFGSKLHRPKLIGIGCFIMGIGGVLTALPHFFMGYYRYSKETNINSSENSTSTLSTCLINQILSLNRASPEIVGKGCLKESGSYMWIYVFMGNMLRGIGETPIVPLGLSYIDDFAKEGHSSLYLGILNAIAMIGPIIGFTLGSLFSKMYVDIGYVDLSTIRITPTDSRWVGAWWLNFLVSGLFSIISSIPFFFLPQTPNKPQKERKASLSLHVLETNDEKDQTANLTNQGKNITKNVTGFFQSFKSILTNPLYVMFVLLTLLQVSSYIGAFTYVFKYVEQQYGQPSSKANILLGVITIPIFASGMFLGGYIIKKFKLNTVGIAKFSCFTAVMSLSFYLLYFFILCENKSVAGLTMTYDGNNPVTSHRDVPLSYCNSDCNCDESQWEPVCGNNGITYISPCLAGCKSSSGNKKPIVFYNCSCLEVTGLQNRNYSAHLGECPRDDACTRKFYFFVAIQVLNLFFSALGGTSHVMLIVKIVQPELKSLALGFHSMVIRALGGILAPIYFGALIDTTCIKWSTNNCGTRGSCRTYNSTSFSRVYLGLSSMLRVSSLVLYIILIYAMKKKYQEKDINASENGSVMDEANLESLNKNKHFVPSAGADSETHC
T3 sequence (Q9NPD5 whole entry): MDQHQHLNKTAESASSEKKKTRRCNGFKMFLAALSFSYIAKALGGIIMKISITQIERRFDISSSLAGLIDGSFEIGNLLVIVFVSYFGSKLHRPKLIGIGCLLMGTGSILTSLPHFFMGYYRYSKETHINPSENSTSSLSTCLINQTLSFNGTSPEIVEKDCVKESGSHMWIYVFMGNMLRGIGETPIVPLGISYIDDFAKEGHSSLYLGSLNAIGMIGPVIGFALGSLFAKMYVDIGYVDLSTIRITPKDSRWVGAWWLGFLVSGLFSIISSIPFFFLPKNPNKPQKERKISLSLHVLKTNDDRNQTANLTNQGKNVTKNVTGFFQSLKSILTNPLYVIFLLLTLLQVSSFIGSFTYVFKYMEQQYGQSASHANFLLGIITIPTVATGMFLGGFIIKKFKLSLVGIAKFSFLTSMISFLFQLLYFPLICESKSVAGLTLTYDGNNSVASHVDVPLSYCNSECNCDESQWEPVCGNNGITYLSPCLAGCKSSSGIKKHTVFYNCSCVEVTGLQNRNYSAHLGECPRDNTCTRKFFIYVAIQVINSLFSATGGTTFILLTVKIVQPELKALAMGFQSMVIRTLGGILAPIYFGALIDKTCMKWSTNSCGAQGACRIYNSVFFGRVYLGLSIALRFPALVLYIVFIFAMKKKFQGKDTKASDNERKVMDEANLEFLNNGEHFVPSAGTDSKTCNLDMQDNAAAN
Sequence of P-gp (P08183 whole entry): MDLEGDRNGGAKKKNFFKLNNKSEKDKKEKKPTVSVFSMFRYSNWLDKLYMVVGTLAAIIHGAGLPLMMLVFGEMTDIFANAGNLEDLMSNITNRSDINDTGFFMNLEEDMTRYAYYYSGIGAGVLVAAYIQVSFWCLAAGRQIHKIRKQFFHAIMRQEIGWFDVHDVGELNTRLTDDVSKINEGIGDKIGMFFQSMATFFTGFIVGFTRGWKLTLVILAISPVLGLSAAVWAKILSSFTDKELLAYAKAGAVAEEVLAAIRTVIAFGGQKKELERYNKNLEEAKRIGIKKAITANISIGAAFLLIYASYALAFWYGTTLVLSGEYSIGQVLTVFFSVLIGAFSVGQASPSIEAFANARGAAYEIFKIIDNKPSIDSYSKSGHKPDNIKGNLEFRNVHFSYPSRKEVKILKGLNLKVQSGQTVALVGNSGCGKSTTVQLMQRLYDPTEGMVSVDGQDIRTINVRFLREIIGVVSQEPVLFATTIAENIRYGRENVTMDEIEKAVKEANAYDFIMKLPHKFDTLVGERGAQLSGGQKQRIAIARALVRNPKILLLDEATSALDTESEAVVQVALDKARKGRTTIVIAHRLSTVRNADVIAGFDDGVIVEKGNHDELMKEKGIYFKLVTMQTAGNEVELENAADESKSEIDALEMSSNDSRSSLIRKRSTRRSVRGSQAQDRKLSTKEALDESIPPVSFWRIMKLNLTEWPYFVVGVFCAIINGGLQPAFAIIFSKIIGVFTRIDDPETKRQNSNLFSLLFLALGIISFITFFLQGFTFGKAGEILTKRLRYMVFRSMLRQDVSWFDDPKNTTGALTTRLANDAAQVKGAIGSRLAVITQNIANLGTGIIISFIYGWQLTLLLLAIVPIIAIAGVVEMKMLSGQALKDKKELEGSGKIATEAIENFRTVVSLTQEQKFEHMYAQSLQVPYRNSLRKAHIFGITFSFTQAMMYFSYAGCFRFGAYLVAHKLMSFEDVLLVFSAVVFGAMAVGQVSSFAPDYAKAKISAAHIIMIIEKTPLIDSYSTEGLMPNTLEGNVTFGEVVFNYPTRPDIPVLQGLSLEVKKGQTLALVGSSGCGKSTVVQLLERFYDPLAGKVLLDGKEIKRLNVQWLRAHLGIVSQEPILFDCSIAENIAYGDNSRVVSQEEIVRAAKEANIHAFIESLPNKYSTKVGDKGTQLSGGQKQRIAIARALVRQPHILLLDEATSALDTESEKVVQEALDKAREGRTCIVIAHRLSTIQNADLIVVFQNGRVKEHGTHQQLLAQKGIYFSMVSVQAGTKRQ
Sequence of MATE2K (Q86VL8 1-566 isoform Q86VL8-3): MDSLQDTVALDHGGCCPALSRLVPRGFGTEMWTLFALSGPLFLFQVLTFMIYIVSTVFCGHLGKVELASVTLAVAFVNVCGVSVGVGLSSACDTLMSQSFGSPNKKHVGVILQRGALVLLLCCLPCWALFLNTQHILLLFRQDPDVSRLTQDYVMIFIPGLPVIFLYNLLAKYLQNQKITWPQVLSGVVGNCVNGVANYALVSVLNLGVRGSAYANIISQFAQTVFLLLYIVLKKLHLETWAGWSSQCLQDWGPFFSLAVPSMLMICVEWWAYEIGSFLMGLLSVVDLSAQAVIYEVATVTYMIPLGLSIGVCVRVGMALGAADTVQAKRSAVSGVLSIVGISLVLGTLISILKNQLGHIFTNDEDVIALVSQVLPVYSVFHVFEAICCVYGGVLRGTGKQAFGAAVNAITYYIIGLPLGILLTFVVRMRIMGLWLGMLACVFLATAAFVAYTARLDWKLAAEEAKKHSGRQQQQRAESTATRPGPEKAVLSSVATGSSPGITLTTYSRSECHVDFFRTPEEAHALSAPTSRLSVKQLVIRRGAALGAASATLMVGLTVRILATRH
Sequence of BSEP (O95342 whole entry): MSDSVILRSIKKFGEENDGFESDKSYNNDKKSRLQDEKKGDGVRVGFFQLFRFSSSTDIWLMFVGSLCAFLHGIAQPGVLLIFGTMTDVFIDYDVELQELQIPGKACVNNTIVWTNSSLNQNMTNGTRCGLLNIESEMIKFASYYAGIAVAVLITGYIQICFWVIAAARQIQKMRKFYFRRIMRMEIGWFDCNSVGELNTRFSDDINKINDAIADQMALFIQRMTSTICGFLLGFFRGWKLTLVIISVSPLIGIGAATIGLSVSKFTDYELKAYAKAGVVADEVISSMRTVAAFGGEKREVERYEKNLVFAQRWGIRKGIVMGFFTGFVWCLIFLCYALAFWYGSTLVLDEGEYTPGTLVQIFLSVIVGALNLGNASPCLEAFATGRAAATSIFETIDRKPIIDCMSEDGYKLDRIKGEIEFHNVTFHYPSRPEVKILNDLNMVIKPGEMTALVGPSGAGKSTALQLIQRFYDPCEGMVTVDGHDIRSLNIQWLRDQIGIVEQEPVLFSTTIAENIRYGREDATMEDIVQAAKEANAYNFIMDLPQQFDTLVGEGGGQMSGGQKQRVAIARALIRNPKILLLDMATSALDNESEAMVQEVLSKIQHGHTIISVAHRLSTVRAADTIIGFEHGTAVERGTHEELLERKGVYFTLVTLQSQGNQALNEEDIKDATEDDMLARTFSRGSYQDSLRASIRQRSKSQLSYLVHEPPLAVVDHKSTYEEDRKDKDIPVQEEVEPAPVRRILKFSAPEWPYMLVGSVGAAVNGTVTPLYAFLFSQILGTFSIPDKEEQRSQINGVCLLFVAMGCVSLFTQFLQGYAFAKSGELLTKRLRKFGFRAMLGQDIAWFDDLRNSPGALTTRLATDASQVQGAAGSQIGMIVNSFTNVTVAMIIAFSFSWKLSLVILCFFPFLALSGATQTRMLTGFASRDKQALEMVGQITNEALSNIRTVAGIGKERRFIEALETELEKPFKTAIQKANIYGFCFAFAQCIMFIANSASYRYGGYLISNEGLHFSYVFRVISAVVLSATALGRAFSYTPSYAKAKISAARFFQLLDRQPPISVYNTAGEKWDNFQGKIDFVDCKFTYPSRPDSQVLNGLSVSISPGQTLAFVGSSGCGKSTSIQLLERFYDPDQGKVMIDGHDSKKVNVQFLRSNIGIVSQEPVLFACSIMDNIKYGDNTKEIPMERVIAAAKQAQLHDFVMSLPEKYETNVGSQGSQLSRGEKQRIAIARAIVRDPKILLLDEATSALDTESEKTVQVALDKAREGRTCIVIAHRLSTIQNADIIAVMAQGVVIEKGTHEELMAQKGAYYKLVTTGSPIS

Substance: tauroursodeoxycholic acid [TUDCA]
- potency estimated from few doses [1, 13]: > 50 µM
- potency estimated from few doses ([1]; estimated from two doses): > 50 µM
- Inhibition of MATE1 [1, 14]: inhibited
- Inhibitor of MATE1 [1, 14]: Yes
- Papp basolateral to apical ([2]; 1 μM): 8.17 ×10⁻⁶ cm/s
- Papp apical to basolateral ([2]; 10 μM): 2.43 ×10⁻⁶ cm/s
- Papp basolateral to apical ([2]; 10 μM): 3.6 ×10⁻⁶ cm/s
- Permeability in Caco-2 cell assay ([2]; 1 and 10 μM (tauroursodeoxycholic acid: 10 μM)): moderate in both directions
- Uptake activity remaining, OATP1B1 ([3]; 50 μM): roughly 18%
- potency estimated from few doses [3, 13]: < 50 µM
- potency estimated from few doses ([3]; estimated from two doses): < 50 µM
- Inhibition of OATP1B1 [3, 14]: inhibited
- Inhibitor of OATP1B1 [3, 14]: Yes
- Inhibitor of BCRP [4, 15]: not an inhibitor
- Remaining BCRP activity, % of the control ([4]; higher test concentration (UDCA: second assay)): 92.3%
- Remaining BCRP activity, % of the control ([4]; lower test concentration (UDCA: second assay)): 111%
- Inhibitor of BCRP [4, 16]: No
- % of time zero remaining in hepatocyte cultures ([5]; 1 hour): ≤ 79.9%
- % of time zero remaining in hepatocyte cultures ([5]; 4 hours): ≤ 75.9%
- % of time zero remaining in hepatocyte cultures ([5]; 24 hours): ≤ 23.5%
- Uptake activity remaining, OATP1B3 ([6]; 50 μM): roughly 18%
- potency estimated from few doses [6, 13]: < 50 µM
- potency estimated from few doses ([6]; estimated from two doses): < 50 µM
- Inhibition of OATP1B3 [6, 14]: inhibited
- Inhibitor of OATP1B3 [6, 14]: Yes
- Uptake by OAT3 ([7]; 1 and 10 μM): ≥ 9.27 pmol/minute/mg protein
- Substrate of OAT3 ([7]; test article 1 and 10 μM): Yes
- Uptake by OATP1B3 ([8]; 1 and 10 μM): 5.90 pmol/minute/mg protein
- Substrate of OATP1B3 ([8]; test article 1 and 10 μM): Yes
- Inhibitor of P-gp [9, 15]: identified as an inhibitor
- Remaining P-gp activity, % of the control ([9]; higher test concentration): 57.3%
- Remaining P-gp activity, % of the control ([9]; lower test concentration): 78.8%
- potency estimated from few doses ([9]; Caco-2, estimated from two doses): > 50 µM
- potency estimated from few doses ([9]; estimated from two concentrations, Caco-2 cells): > 50 µM
- Inhibitor of P-gp [9, 16]: Yes
- Substrate of MATE2-K ([10]; 1 and 10 μM): not a substrate
- Substrate of MATE2-K ([10]; test article 1 and 10 μM): No
- Substrate of BSEP [11]: Yes
- Substrate of BCRP ([12]; Caco-2, 1 and 10 μM): as a substrate
- Substrate of BCRP ([12]; test article 1 and 10 μM, Caco-2 cells): Yes
